Measured values from BindingDB's records for patent US10934285 (Novartis, 2021).
pIC50: −log10 of the molar value.

Biological target: T1, Tyrosine-protein phosphatase non-receptor type 11 (Homo sapiens, UniProt Q06124)
T1 sequence (Q06124 whole entry): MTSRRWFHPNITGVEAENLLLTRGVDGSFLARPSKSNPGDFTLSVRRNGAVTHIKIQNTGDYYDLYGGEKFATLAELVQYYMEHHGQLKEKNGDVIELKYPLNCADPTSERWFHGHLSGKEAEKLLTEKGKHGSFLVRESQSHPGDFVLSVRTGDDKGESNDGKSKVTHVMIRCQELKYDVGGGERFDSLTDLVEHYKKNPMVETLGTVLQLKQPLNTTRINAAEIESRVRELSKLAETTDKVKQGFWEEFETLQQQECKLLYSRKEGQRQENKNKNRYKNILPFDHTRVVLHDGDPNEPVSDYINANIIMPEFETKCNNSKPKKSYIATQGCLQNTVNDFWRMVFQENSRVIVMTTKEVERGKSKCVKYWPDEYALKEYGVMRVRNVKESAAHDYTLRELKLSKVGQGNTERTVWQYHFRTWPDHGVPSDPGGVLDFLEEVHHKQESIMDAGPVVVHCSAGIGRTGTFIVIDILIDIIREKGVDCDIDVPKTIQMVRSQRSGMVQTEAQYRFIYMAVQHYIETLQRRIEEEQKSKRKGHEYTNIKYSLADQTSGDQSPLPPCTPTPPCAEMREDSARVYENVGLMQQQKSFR
Experiment: Inhibition Assay
Procedure: After 30-60 minutes incubation at 25° C., the surrogate substrate DiFMUP (Invitrogen, cat #D6567) was added to the reaction and incubated at 25° C. for 30 minutes. The reaction was then quenched by the addition of 5 μl of a 160 μM solution of bpV(Phen) (Enzo Life Sciences cat #ALX-270-204). The fluorescence signal was monitored using a microplate reader (Envision, Perki-Elmer) using excitation and emission wavelengths of 340 nm and 450 nm, respectively. The inhibitor dose response curves were analyzed using normalized IC50 regression curve fitting with control based normalization.

Structure (SMILES) | pIC50
CC1(CN)CCN(c2nnc(Sc3cccc(NC(=O)c4c(O)n5c(ccc6ccccc65)nc4=O)c3Cl)c(N)n2)CC1 [US10934285, Example 38] | 7.82
CN(c1cnc(Sc2cccc(NC(=O)c3c(O)nc4n(c3=O)CCCC4)c2Cl)c(N)n1)C1CC(C)(C)NC(C)(C)C1 [US10934285, Example 21] | 5.27
